Assay: Inhibition Assay: To determine whether compounds were selective for TRPV3 inhibition over inhibition of other ion channel types, the human ERG (hERG), NaV1.2, and TRPV1 (hTRPV1) channels and the rat TRPV6 (rTRPV6) channel were also stably transfected and expressed or induced to express in mammalian cell lines. The methods for measuring currents from these channels are well-established and have been described in numerous publications (See, Weerapura et al., 2002, J Physiology 540: 15-27; Rush et al., 2005, J Physiology 564: 808-815; Caterina et al., 1997, Nature 389: 816-824; Hoenderhop et al., 2001, J Physiology 537: 747-761; Clapham et al., 2003, Pharmacol Rev 55: 591-596).

Question: For `Cc1cccc2c1N(C(=O)CSc1ccc(Cl)cn1)CCC2`, which IC50 is on record?
Answer: Its IC50 is greater than 30 µM.
